Data set [1] has as its target T1, Stimulator of interferon genes protein (Mus musculus) (UniProt Q3TBT3).
T1 sequence (whole entry): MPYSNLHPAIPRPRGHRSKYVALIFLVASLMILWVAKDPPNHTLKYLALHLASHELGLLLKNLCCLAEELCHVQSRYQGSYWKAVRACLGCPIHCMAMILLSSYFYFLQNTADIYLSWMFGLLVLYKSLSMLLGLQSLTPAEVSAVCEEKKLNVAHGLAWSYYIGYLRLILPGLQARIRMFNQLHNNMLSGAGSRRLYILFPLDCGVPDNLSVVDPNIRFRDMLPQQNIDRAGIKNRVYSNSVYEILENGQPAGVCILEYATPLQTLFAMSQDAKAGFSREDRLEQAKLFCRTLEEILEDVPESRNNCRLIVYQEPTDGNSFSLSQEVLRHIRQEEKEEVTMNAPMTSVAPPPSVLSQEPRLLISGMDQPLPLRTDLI
Nature of the data set: Activation of STING mediated immune response in mouse RAW264.7 cells assessed as induction of IP-10 secretion measured after 24 hrs by ELISA. In kind it is cell-based. The settings on record: filed as activator, dose 0.32-5000 nM, DDE = dose-dependent effect. Background: In an ELISA, binding on a coated surface is turned into a signal by an enzyme label.

In data set [2] the test system is THP-1. Nature of the data set: Upregulation of IFIT3 in human THP-1 cells at 100 nM measured after 6 to 18 hrs by RT-PCR analysis. The class given is functional, cell-based. The following applies: time 6-18 hrs.
A further data set concerns the target T2, Cytochrome P450 1A2 (Homo sapiens, UniProt P05177).
T2 sequence (P05177 whole entry): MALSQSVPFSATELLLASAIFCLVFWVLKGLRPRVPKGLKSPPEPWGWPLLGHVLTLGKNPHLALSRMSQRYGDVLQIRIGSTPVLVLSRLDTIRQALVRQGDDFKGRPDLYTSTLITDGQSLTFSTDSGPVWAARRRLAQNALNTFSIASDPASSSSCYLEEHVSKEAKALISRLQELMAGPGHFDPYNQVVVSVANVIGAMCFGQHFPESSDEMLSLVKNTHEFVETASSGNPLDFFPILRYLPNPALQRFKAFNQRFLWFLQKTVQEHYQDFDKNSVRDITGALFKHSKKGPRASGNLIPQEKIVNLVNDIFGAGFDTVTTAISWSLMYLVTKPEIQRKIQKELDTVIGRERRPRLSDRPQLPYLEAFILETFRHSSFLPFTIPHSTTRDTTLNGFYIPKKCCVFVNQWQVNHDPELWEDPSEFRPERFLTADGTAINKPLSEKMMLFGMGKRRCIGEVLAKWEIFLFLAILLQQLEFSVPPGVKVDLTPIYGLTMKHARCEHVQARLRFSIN
Nature of the data set: Inhibition of CYP1A2 in human liver microsomes using phenacetin as cocktail probe substrate preincubated for 5 mins followed by NADPH addition and measured after 30 mins by HPLC-MS/MS analysis. In kind it is ADME, Microsome. In general terms: Microsomes from liver hold many membrane-bound enzymes, among them those of drug oxidation.

Data set [3] has as its target T3, Stimulator of interferon genes protein (Homo sapiens, UniProt Q86WV6). Nature of the data set: Binding affinity to STING in human THP-1 cells assessed as thermal stabilization at 48 to 55 degC at 100 nM incubated for 4 hrs by western blotting based CETSA assay. In kind it is cell-based. The following applies: filed as activator.
Data set [4] concerns the target T3, Stimulator of interferon genes protein. Nature of the data set: Binding affinity to recombinant human His-tagged STING by measuring fluorescent signals in the presence of d2 labelled STING wild type ligand by HTRF based microplate reader analysis. On the technique in general: TR-FRET usually uses a lanthanide donor and a delayed reading to cut background.
In data set [5] the test system is THP-1. Nature of the data set: Upregulation of IFNB in human THP-1 cells at 100 nM measured after 6 hrs by RT-PCR analysis. The class given is functional, cell-based.
Data set [6] in a line: Terminal half life in BALB/c mouse at 3 mg/kg, iv by LC-MS/MS analysis. The class given is ADME, organism-based. The settings on record: in vivo, read-out: beta t1/2 (converted).
Data set [7] concerns CT26. Nature of the data set: Antitumor activity against CT26 cells injected in BALB/c syngenic mouse model assessed as reduction in tumor growth at 0.015 to 1.5 mg/kg, iv measured every 2 to 3 days for 17 days. The class given is functional, organism-based. The following applies: dose 0.015-1.5 mg/kg, time 17.0 day.
The test system of data set [8] is THP-1. Nature of the data set: […] of IFNB in human THP-1 cells at 100 nM measured after 18 hrs by RT-PCR analysis. In kind it is functional, cell-based.
A further data set addresses Cytochrome P450 2D6 (Homo sapiens, UniProt P10635). The data set can be described thus: Inhibition of CYP2D6 in human liver microsomes using dextromethorphan as cocktail probe substrate preincubated for 5 mins followed by NADPH addition and meaured after 30 mins by HPLC-MS/MS analysis. The class given is ADME, Microsome.
Data set [9] relates to CT26. The data set can be described thus: Antitumor immunity activity against mouse CT26 cells xenografted in BALB/c mouse model assessed as tumor growth inhibition at 1.5 mg/kg, iv measured after 8 days. The following applies: time 8.0 day. In kind it is functional, organism-based.
The next data set deals with Mus musculus. The data set can be described thus: Upregulation of IFN-beta in BALB/c mouse serum at 1.5 mg/kg, iv measured after 4 hrs by ELISA. In kind it is functional, organism-based.
Data set [10] concerns the target T3, Stimulator of interferon genes protein. Nature of the data set: Activation of STING pathway in human THP1-cells assessed as increase in IRF3 phosphorylation at 2 nM incubated 6 hrs by Western blotting analysis. The following applies: THP-1, filed as activator. In kind it is cell-based.
Data set [11] shares this target. Nature of the data set: Activation of STING pathway in human THP-1 cells assessed as increase in TBK1 phosphorylation at 2 nM incubated for 6 hrs by Western blotting analysis. The following applies: filed as activator. In kind it is cell-based.
A short description of data set [12]: Stability in mouse liver microsome assessed as parent compound remaining at 1 uM measured after 30 mins in the presence of NADPH by HPLC-MS/MS analysis. In kind it is ADME. The settings on record: liver microsomes, read-out: Stability.
Data set [13] in a line: Toxicity in BALB/c mouse xenografted with mouse CT26 cells assessed as effect on body weight at 1.5 mg/kg, iv measured after 8 days. The class given is organism-based. The settings on record: in vivo, 192 h, time 8 day.
The target in data set [14] is T1, Stimulator of interferon genes protein (Mus musculus). Nature of the data set: Binding affinity to STING in mouse RAW264.7 assessed as thermal stabilization at 48 to 55 degC at 100 nM incubated for 4 hrs by western blotting based CETSA assay. The class given is cell-based. The settings on record: filed as activator.
Data set [15] concerns the target T3, Stimulator of interferon genes protein. The data set can be described thus: Activation of STING mediated immune response in human THP-1 cells assessed as induction of IP-10 secretion measured after 24 hrs by ELISA. The class given is cell-based. The following applies: filed as activator, dose 0.41-100 nM, DDE = dose-dependent effect.

Activity calls are given as the source filed them. The rule behind the calls is not given here.

T3 sequence (Q86WV6 whole entry): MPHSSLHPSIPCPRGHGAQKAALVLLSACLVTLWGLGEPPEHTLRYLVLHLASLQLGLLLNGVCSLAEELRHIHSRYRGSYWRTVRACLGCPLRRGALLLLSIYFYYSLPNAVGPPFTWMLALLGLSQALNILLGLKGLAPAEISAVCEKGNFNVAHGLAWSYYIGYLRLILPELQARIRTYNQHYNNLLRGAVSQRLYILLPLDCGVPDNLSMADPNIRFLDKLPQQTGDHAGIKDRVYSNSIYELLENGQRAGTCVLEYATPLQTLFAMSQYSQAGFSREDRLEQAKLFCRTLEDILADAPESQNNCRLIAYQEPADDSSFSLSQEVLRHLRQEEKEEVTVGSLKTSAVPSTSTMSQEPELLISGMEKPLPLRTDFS
Sequence of Cytochrome P450 2D6 (P10635 whole entry): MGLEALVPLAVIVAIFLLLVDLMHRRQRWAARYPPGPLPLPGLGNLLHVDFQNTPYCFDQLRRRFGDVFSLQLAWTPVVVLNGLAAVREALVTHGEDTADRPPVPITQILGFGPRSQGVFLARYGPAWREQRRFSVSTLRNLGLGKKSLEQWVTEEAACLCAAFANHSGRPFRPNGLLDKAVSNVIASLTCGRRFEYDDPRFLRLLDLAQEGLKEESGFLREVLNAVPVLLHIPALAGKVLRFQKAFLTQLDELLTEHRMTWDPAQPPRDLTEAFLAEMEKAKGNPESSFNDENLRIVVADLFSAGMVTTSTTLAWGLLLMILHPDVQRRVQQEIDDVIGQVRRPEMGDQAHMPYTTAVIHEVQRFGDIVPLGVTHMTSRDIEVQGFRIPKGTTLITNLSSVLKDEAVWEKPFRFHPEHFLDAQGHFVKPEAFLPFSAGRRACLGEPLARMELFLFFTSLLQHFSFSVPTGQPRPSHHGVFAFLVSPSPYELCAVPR

Broadly, the IC50 is the midpoint of a concentration-inhibition curve. For the molecule `CCn1nc(C)cc1C(=O)Nc1nc2cc(C(N)=O)cc(OC)c2n1C/C=C/Cn1c(NC(=O)c2cc(C)nn2CC)nc2cc(C(N)=O)cc(OCCCNC(=O)OC(C)(C)C)c21`, the Activity result in [1] was “Dde”; in data set [13], “Non-Toxic”; in data set [15], “Dde”. The result (in the data set on THP-1 [2]; in data set [3]; with THP-1 [5]; with CT26 [7]; with THP-1 [8]; in the data set on CT26 [9]) was Active. The result (in the data set with Mus musculus; in [10]; in data set [11]; in data set [14]) was Active. Also, the IC50 against Cytochrome P450 1A2 is greater than 100 µM; in data set [4], 0.0623 nM; against Cytochrome P450 2D6, greater than 100 µM. In addition, in data set [6], the half-life is 632 min. Besides, the remaining at 0.5 h, 1 µM in data set [12] turned out to be 38.7%.
